Assay results published in patent US8309790B2, “Animal models for demyelination disorders” (University of Chicago, priority 2005, dated 2012).

Tested on: Hippocampal organotypic cultures
Test: Hippocampal organotypic cultures (HOC), in vitro model of myelination, MBP Western blot
Assay type: cell-based
Details: 7 days of 100 U/ml IFN-γ exposure
Description: Our hypothesis is that the integrated stress response has the potential to protect oligodendrocytes from the harmful effects of the inflammatory response in patients with multiple sclerosis (MS). […] To test whether agents that prolong eIF2α phosphorylation might provide protection to oligodendrocytes against detrimental inflammatory factors, the effect of Salubrinol (Sal) in the presence of the immune cytokine IFN-γ was tested in an in vitro model of myelination.
HOCs, were prepared and maintained as described previously (Kunkler and Kraig (1997) J Cereb Blood Flow Metab. 17:26-43), and were maintained in vitro for 7 days before use. SAL at various concentrations was combined with 100 U/ml IFN-γ and added to the HOC cultures for 7 days. […] After 7 days of 100 U/ml IFN-γ exposure, the levels of MBP decreased approximately 80% in the HOCs (FIG. 29).

## interferon-γ [IFN-γ]
  decrease of the levels of MBP: approximately 80%
